Source: patent US20180280504A1, “GLYCAN-INTERACTING COMPOUNDS AND METHODS OF USE” (SIAMAB THERAPEUTICS, INC., priority 2014, published 2018)

Assays:
[1] = E3-STn allograft model, average weight of mice; assay type: in vivo, mouse
Procedure: Balb/c mice were used as part of the test system. 50 female mice were inoculated with E3-STn cells to cause STn-expressing tumor formation. Mice were maintained under pathogen-free conditions with irradiated feed and autoclaved water.
The average weight of mice in each treatment group was also determined on days 1, 4, 6, 8, 11, 13, 15, 18, 20, 22, 26, 27, 29, 32, 34, 36, 39 and 41 following the first administration of each test article (see the following Table). The percent gain or loss over initial weight values is listed in parentheses.

[2] = PAA-glycan ELISA, GcSTn-PAA; assay type: binding; settings: 200 ng/well PAA antigen; 1:5 dilutions from 1 μM
Procedure: (§1) 18D2 and 18C7 antibodies were further characterized by ELISA comprising antigens other than BSM. ELISAs were carried out according to Example 2, with the exception that ELISA plates were coated with biotinylated polyacrylamide (PAA) particles comprising either AcSTn (AcSTn-PAA), GcSTn (GcSTn-PAA) or Tn (Tn-PAA) as antigens. These particles present the antigens in a multivalent format. Briefly, 96-well ELISA plates were coated with 200 ng/well of each PAA antigen and blocked with PBS with 1% OVA. Antibodies were serially diluted at 1:5 in PBS with 1% OVA using an initial concentration of 1 μM. After blocking, antibodies were added to the plates and plates were incubated for 1.5 hours at room temperature. Binding of anti-STn antibodies was detected using a goat anti-mouse IgG-HRP conjugated antibody (Jackson Immunoresearch Laboratories, West Grove, Pa.). The reaction was developed by addition of HRP substrate and hydrogen peroxide. The reaction was then stopped by the addition of sulfuric acid (1.6 M). Optical densities were measured at 490 nm. A dose-response curve was generated using readings at each concentration tested and a non-linear regression curve was generated with four-parameter modeling to determine EC50 values for each antibody.

[3] = PAA-glycan ELISA, AcSTn-PAA; assay type: binding; settings: 200 ng/well PAA antigen; 1:5 dilutions from 1 μM
Procedure: as §1

[4] = test system: ST6GalNAc 1 transfected MDA-MB-231 cells (MDA-STn+); experiment: Flow cytometry-based analysis of antibody binding, STn+ cells; parameters: species or system human; settings: ST6GalNAc 1 transfected MDA-MB-231 cells; APC anti-mouse IgG
Procedure: Flow cytometry-based analysis is carried out to elucidate the curve-dose response for binding of antibodies to cell surface antigens. For these analyses, three cell lines are employed.
MDA-MB-231 cells are human breast cancer cells. They are grown in Earle's Minimum Essential Medium supplemented with 10% fetal calf serum (FCS), 100 μg/ml penicillin, 100 UI/ml streptomycin and 45 μg/ml gentamycin. MCF-7 cells are also human breast cancer cells and are grown under the same conditions as MDA-MB-231 cells. Stably transfected versions of MDA-MB-231 and MCF-7 cells (clone TAH3.P10 for MDA-MB-231 cells and clone A12.1 for MCF-7 cells) that over express GalNAc α2,6-sialyltransferase (ST6GalNAc 1,) are also cultured under the same conditions with the exception of an added 1 mg/ml of G418 to support cells expressing the transgene. ST6GalNAc 1 is an enzme capable of sialylating GalNAc. As a result of over expression, transfected cells express high levels of Neu5Ac-STn (see Julien, S. et al., Glycoconjugate journal. 2001. 18, 883-93; the contents of which are herein incorporated by reference in their entirety). E3 cells are murine breast cancer cells. They are cultured in Dulbecco's E4 medium with 10% FCS. Stably transfected versions of E3 cells expressing high levels of Neu5Gc-STn (E3-STn) are cultured with 600 μg/ml of G418 and 200 μg/ml hygromycin. During growth and maintenance of experimental cells, trypsin is not used for cell passaging.
For analysis, cells are harvested using StemPro Accutase (Life Technologies, Carlsbad, Calif.) and washed with PBS comprising 5% FBS before pelleting by light centrifugation. Cell numbers and viability are determined by trypan blue dye exclusion analysis and cell concentrations are adjusted to 5×10^6 cells/ml in PBS with 5% FBS. 50 μl of cells are added to each well of an assay plate. Cells are combined with 50 μl solutions of antibody being analyzed or control antibodies and incubated for 1 hour at 4° C. Cells are washed and pelleted twice with PBS with 5% FBS before being treated with 100 μl of PBS with 5% FBS comprising a 1:1,500 dilution of anti-mouse IgG (Southern Biotech, Birmingham, Ala.,) conjugated to allophycocyanin (APC). Cells are incubated for 30 min at 4° C. before washing and resuspending in 200 μl of propidium iodide (PI) diluted 1:1000 in PBS with 5% FBS. Treated cells are then subjects to flow cytometry analysis and 10,000 events are acquired for each sample.

CC(=O)O[C@H]1C(=O)[C@@]2(C)[C@H]([C@H](OC(=O)c3ccccc3)[C@]3(O)C[C@H](OC(=O)[C@H](O)[C@@H](NC(=O)c4ccccc4)c4ccccc4)C(C)=C1C3(C)C)[C@]1(OC(C)=O)CO[C@@H]1C[C@@H]2O [Paclitaxel, reference compound]
Average Weight ([1]; day 1 of study): 16.7 g
Average Weight ([1]; day 4 of study): 16.5 g
Average Weight ([1]; day 6 of study): 17 g
Average Weight ([1]; day 8 of study): 17.3 g
Average Weight ([1]; day 11 of study): 17.1 g
Average Weight ([1]; day 13 of study): 17.4 g
Average Weight ([1]; day 15 of study): 17.8 g
Average Weight ([1]; day 18 of study): 17.6 g
Average Weight ([1]; day 20 of study): 17.8 g
Average Weight ([1]; day 22 of study): 17.9 g
Average Weight ([1]; day 26 of study): 18.3 g
Average Weight ([1]; day 27 of study): 18.5 g
Average Weight ([1]; day 29 of study): 18.9 g
Average Weight ([1]; day 32 of study): 18.9 g
Average Weight ([1]; day 34 of study): 19.2 g
Average Weight ([1]; day 36 of study): 18.5 g
Average Weight ([1]; day 39 of study): 19.1 g
Average Weight ([1]; day 41 of study): 19.2 g

B1: 3F1: commercially available mouse anti-STn monoclonal antibody (SBH Sciences), IgG1; VH SEQ ID NO: 59, VL SEQ ID NO: 60 (antibody, V domains shown)
VH: QVQLQQSDAELVKPGASVKISCKASGYTFTDHAIHWVKQKPEQGLDWIGYISPGNGDIKYNEKFKDKVTLTADKSSSTACMHLNSLTSEDSAVYFCKRSLLALDYWGQGTTLTVSS
VL: DIVMTQSHKFMSTSVGDRVSITCKASQDVGTNIAWYQQKPGRSPKVLIYSASTRHTGVPDRFTGSGSGTDFTLTISNVQSEDLTDYFCQQYSSFPLTFGVGTKLELK
EC50 [2]: 0.0732 µM
EC50 [3]: 0.152 µM
EC50, flow cytometry binding to cell-associated STn [4]: 0.00242 µM
